Data from patent publication US4820836A, “Prostacyclin (PGI2) analogues” (Shionogi & Co., Ltd., priority 1986, dated 1989).
Read-outs that look alike come from different tables or passages of the source.

Test system: Platelet Agglutination
Assay: In vitro inhibition of platelet agglutination (rabbit platelet rich plasma, aggregometer) induced by arachidonic acid, collagen or ADP
Format: cell-based
Conditions: Oryctolagus cuniculus, rabbit PRP
Description: The inhibitory activity of the representative compounds of the present invention against platelet agglutination is shown in the following in vitro test.
Mature male rabbits (NIBS-JW, RABITON Institute Inc., weighing 2.2-2.7 kg) were used. Under sodium pentobarbital anesthesia (Somnopentyl, Pitman Movre, about 25 mg/Kg, i.v.), blood was with from the carotid artery by cannulation into centrifuge tubes containg 1/10 vol of a 3.8% sodium citrate solution. (The total volume in each tube was adjusted to 8 ml.) The blood in a tube was gentyl mixed by turing and centrifuged for 10 minutes at 210 g at 20° C. to give platelet rich plasma (PRP). The remaining blood was further centrifuged at 3,000 rpm (about 1,900 g) for 10 minutes at 20° C. to give platelet-poor plasma (PPP).
PRP was diluted with PPP to prepare a blood sample whose platelet number was 50-55×10^4 /μl. The sample was then subjected to a platelet agglutination test.
The platelet agglutination was examined by the method of Bron [Born, G.V.R., Nature, 194, 927-929 (1962)], using a Type AUTO RAM-61 aggregometer, (Rika Denki Co., Ltd., Tokyo). A volume of 400 μl of PRP, whose platelet number was adjusted to 50-55×10^4 /μl, was placed in a measuring cuvette and set in the aggregometer. PRP was warmed at 37° C. for 1 minute with stirring at 1,200 rpm, and then a solution of the test compound [dimethylsulfoxide solution (2 μl) of the compound+saline (48 μl); in case of prostaglandin I2 (PGI2) and prostaglandin E1 (PG E1), a solution of each compound (50 μl) in Tris buffer] was added thereto. Exactly 2 minutes later, 50 μl of ADP Pharmacia, U.S.A., (final concentration: 30 μM) or collagen (final muchen, muchen, concentration: 20 μg/ml) or arachidonic acid (sodium salt, Sigma, final concentration (500 μM) was added as a platelet agglutinating agent, and the change in light transmission caused by platelet agglutination was recorded.
The light transmissions of PRP and PPP were taken as 0% and 100% agglutination, respectively, and the maximum light transmission after addition of an agglutinating agent was made to the maxiumum agglutination. The inhibition rate of the platelet agglutination was expressed as the percentage of the maximum agglutination by a test compound to that by a control (Vehicle added group).
Prostaglandin (PG) I2 and E1 are served as standard substances.

[1] = ADP, final 30 μM, 37° C., compound in dimethylsulfoxide+saline, read-out: Inhibition Activity against Platelet Agglutination [50% Inhibition Concentration (μM)], ADP
[2] = arachidonic acid, final 500 μM, 37° C., compound in dimethylsulfoxide+saline, read-out: Inhibition Activity against Platelet Agglutination [50% Inhibition Concentration (μM)], Arachidonic acid
[3] = collagen, final 20 μg/ml, 37° C., compound in dimethylsulfoxide+saline, read-out: Inhibition Activity against Platelet Agglutination [50% Inhibition Concentration (μM)], Collagen

| IC50 [1] [µM] | IC50 [2] [µM] | IC50 [3] [µM] | SMILES | further results |
| --- | --- | --- | --- | --- |
| 18 | 160 | 9 | CCCCC[C@H](O)/C=C/[C@H]1[C@H](O)C[C@]2(CC)N=C(SCCCC(=O)OCC)C[C@H]12 [17(S)d] |  |
| 1.6 | 4.4 | 0.6 | CCCCC[C@H](O)/C=C/[C@H]1[C@H](O)C[C@]2(C)N=C(SCCCC(=O)OCC)C[C@H]12 [17(S)e] |  |
| 0.011 | 0.02 | 0.006 | C#C[C@]12C[C@@H](O)[C@H](/C=C/[C@@H](O)CCCCC)[C@H]1CC(SCCCC(=O)OCC)=N2 [17(S)g, ethyl 4-[1-ethynyl-7-hydroxy-6-[(3S)-3-hydroxy-1-octenyl]-2-azabicyclo[3.3.0]oct-2-en-3-yl]thiobutanoate] |  |
| 0.42 | 0.7 | 0.1 | C=C[C@]12C[C@@H](O)[C@H](/C=C/[C@@H](O)CCCCC)[C@H]1CC(SCCCC(=O)OCC)=N2 [17(S)l, ethyl 4-[1-ethenyl-7-hydroxy-6[(3S)-3-hydroxy-1-octenyl]-2-azabicyclo[3.3.0]oct-2-en-3-yl]thiobutanoate] |  |
| 0.167 | 0.332 | 0.044 | CCCCC[C@H](O)/C=C/[C@H]1[C@H](O)C[C@]2(C#N)N=C(SCCCC(=O)OCC)C[C@H]12 [17(S)m, ethyl 4-[1-cyano-7-hydroxy-6-[(3S)-3-hydroxy-1-octenyl]-2-azabicyclo[3.3.0]oct-2-en-3-yl]thiobutanoate] |  |
| 0.0049 | 0.0093 | 0.0093 | C#C[C@]12C[C@@H](O)[C@H](/C=C/[C@@H](O)CCCCC)[C@H]1CC(SCCCC(=O)O)=N2 [19(S)g, Sodium 4-[1-ethynyl-7-hydroxy-6-[(3S)-3-hydroxy-1-octenyl]-2-azabicyclo[3.3.0]oct-2-en-3-yl]thiobutanoate] |  |
| 0.0042 | 0.0035 | 0.0028 | CC#C[C@]12C[C@@H](O)[C@H](/C=C/[C@@H](O)CCCCC)[C@H]1CC(SCCCC(=O)O)=N2 [19(S)h, sodium 4-[7-hydroxy-6-[(3S)-3-hydroxy-1-octenyl]-1-(1-propynyl)-2-azabicyclo[3.3.0]oct-2-en-3-yl]thiobutanoate] |  |
| 0.074 | 0.16 | 0.062 | CCCCC[C@H](O)/C=C/[C@@H]1[C@H]2CC(SCCCC(=O)OC)=N[C@H]2C[C@H]1O [Compound 18c, reference compound] |  |

The next lines start with the compound.

| SMILES | IC50 [1] [µM] | IC50 [2] [µM] | IC50 [3] [µM] | further results |
| --- | --- | --- | --- | --- |
| C#C[C@]12C[C@@H](O)[C@H](/C=C/[C@H](O)C(C)CCCC)[C@H]1CC(SCCCC(=O)OCC)=N2 (stereo partly drawn) [17(R)g-b] | 2.06 | 1.55 | 0.54 |  |
| C#C[C@]12C[C@@H](O)[C@H](/C=C/[C@H](O)C(C)CC#CC)[C@H]1CC(SCCCC(=O)OCC)=N2 (stereo partly drawn) [17(R)g-d] | 8.43 | 11.7 | 4 |  |
| C#C[C@]12C[C@@H](O)[C@H](/C=C/[C@H](O)C3CCCCC3)[C@H]1CC(SCCCC(=O)OCC)=N2 [17(R)g-e] | 13.4 | 60.6 | 3 |  |
| C=C[C@]12C[C@@H](O)[C@H](/C=C/[C@H](O)C(C)CC#CC)[C@H]1CC(SCCCC(=O)OCC)=N2 (stereo partly drawn) [17(R)l-d] | 55 | 118 | 23 |  |
| C=C[C@]12C[C@@H](O)[C@H](/C=C/[C@H](O)C3CCCC3)[C@H]1CC(SCCCC(=O)OCC)=N2 [17(R)l-f] | 142 | 443 | 54 |  |
| CCCCC[C@H](O)/C=C/[C@H]1[C@H](O)C[C@]2(Sc3ccccc3)N=C(SCCCC(=O)OCC)C[C@H]12 [17(S)a, ethyl 4-[7-hydroxy-6-[(3S)-3-hydroxy-1-octenyl]-1-phenylthio-2-azabicyclo[3.3.0]oct-2-en-3-yl]thiobutanoate] | 16 | 21 | 8 |  |
| CCCCC[C@H](O)/C=C/[C@H]1[C@H](O)C[C@]2(OC)N=C(SCCCC(=O)OCC)C[C@H]12 [17(S)b] | 15 | 16 | 7 |  |
| C#C[C@]12C[C@@H](O)[C@H](/C=C/[C@@H](O)C(C)CCCC)[C@H]1CC(SCCCC(=O)OCC)=N2 (stereo partly drawn) [17(S)g-b] | 0.0066 | 0.012 | 0.0013 |  |
| C#C[C@]12C[C@@H](O)[C@H](/C=C/[C@@H](O)C(C)CC#CC)[C@H]1CC(SCCCC(=O)OCC)=N2 (stereo partly drawn) [17(S)g-d] | 0.014 | 0.018 | 0.0042 |  |
| C#C[C@]12C[C@@H](O)[C@H](/C=C/[C@@H](O)C3CCCCC3)[C@H]1CC(SCCCC(=O)OCC)=N2 [17(S)g-e] | 0.033 | 0.146 | 0.0094 |  |
| CC#C[C@]12C[C@@H](O)[C@H](/C=C/[C@@H](O)CCCCC)[C@H]1CC(SCCCC(=O)OCC)=N2 [17(S)h] | 0.006 | 0.01 | 0.0013 |  |
| CCCCC[C@H](O)/C=C/[C@H]1[C@H](O)C[C@]2(C#Cc3ccccc3)N=C(SCCCC(=O)OCC)C[C@H]12 [17(S)i] | 5 | 44 | 0.45 |  |
| C#CC#C[C@]12C[C@@H](O)[C@H](/C=C/[C@@H](O)CCCCC)[C@H]1CC(SCCCC(=O)OCC)=N2 [17(S)k, ethyl 4-[1-(1,3-butadiynyl)-7-hydroxy-6-[(3S)-3-hydroxy-1-octenyl]-2-azabicycl[3.3.0]oct-2-en-3-yl]thiobutanoate] | 0.27 | 0.74 | 0.053 |  |
| C=C[C@]12C[C@@H](O)[C@H](/C=C/[C@@H](O)C(C)CC#CC)[C@H]1CC(SCCCC(=O)OCC)=N2 (stereo partly drawn) [17(S)l-d] | 0.13 | 0.36 | 0.048 |  |
| C=C[C@]12C[C@@H](O)[C@H](/C=C/[C@@H](O)C3CCCC3)[C@H]1CC(SCCCC(=O)OCC)=N2 [17(S)l-f] | 0.3 | 1.2 | 0.12 |  |
| C#C[C@]12C[C@@H](O)[C@H](/C=C/[C@@H](O)CCCCC)[C@H]1CC(SCCCC(=O)OC)=N2 [18(S)g, methyl 4-[1-ethynyl-7-hydroxy-6-[(3S)-3-hydroxy-1-octenyl]-2-azabicyclo[3.3.0]oct-2-en-3-yl]thiobutanoate] | 0.0241 | 0.081 | 0.011 |  |
| CCCCC[C@H](O)/C=C/[C@H]1[C@H](O)CC(=O)[C@@H]1CCCCCCC(=O)O [PGE1, prostaglandin E1, reference compound] |  |  |  | IC50 (pH 7.4, ADP, final 30 μM, Tris buffer, pH7.4, read-out: Inhibition Activity against Platelet Agglutination [50% Inhibition Concentration (μM)], ADP): 0.066 µM; IC50 (pH 7.4, arachidonic acid, final 500 μM, Tris buffer, pH7.4, read-out: Inhibition Activity against Platelet Agglutination [50% Inhibition Concentration (μM)], Arachidonic acid): 0.25 µM; IC50 (pH 7.4, collagen, final 20 μg/ml, Tris buffer, pH7.4, read-out: Inhibition Activity against Platelet Agglutination [50% Inhibition Concentration (μM)], Collagen): 0.052 µM |
| CCCCC[C@H](O)/C=C/[C@@H]1[C@H]2C/C(=C/CCCC(=O)O)O[C@H]2C[C@H]1O [PGI2, prostaglandin I2] |  |  |  | IC50 (pH 8, ADP, final 30 μM, Tris buffer, pH8.0, read-out: Inhibition Activity against Platelet Agglutination [50% Inhibition Concentration (μM)], ADP): 0.014 µM; IC50 (pH 8, arachidonic acid, final 500 μM, Tris buffer, pH8.0, read-out: Inhibition Activity against Platelet Agglutination [50% Inhibition Concentration (μM)], Arachidonic acid): 0.054 µM; IC50 (pH 8, collagen, final 20 μg/ml, Tris buffer, pH8.0, read-out: Inhibition Activity against Platelet Agglutination [50% Inhibition Concentration (μM)], Collagen): 0.019 µM; IC50 (pH 10, ADP, final 30 μM, Tris buffer, pH10.0, read-out: Inhibition Activity against Platelet Agglutination [50% Inhibition Concentration (μM)], ADP): 0.016 µM; IC50 (pH 10, arachidonic acid, final 500 μM, Tris buffer, pH10.0, read-out: Inhibition Activity against Platelet Agglutination [50% Inhibition Concentration (μM)], Arachidonic acid): 0.09 µM; IC50 (pH 10, collagen, final 20 μg/ml, Tris buffer, pH10.0, read-out: Inhibition Activity against Platelet Agglutination [50% Inhibition Concentration (μM)], Collagen): 0.02 µM |
